According to patent publication US9758492B2, “IDO inhibitors” (Bristol-Myers Squibb Company, priority 2013, dated 2017):

Each molecule was assayed against IDO (Homo sapiens, UniProt P14902) (assay: LLE_IDO_ABS_DR (IDO assay)).
Chain of IDO (P14902 whole entry): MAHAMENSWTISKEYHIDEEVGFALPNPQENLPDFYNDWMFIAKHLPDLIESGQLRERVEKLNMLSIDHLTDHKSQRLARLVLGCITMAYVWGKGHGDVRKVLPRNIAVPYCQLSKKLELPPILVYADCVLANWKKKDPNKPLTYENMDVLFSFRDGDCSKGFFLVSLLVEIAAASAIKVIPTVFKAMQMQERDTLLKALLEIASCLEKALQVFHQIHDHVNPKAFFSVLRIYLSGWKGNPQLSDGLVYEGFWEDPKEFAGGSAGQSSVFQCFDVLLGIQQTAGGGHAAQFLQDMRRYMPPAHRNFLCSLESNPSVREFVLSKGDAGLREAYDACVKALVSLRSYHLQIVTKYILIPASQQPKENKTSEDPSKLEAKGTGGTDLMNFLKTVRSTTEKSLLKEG

| Structure (SMILES) | IC50 |
| --- | --- |
| Cc1ccc(NC(=O)Nc2cc(-c3ccccc3C(=O)O)ccc2N(CCC(F)(F)F)CC2CC2)cc1 [Example 64, 4′-((cyclopropylmethyl) (3,3,3-trifluoropropyl)amino)-3′-(3-p-tolylureido)biphenyl-2-carboxylic acid] | 290 nM |
| COc1ccc(-c2ccc(N(CCC(F)(F)F)CC3CC3)c(NC(=O)Nc3ccc(C)cc3)c2)cc1C(=O)O [Example 65, 4′-((cyclopropylmethyl) (3,3,3-trifluoropropyl)amino)-4-methoxy-3′-(3-p-tolylureido) biphenyl-3-carboxylic acid] | 3700 nM |
| Cc1ccc(NC(=O)Nc2cc(-c3ccccc3C(=O)O)ccc2N(CC2CC2)CC2CC2)cc1 [Example 67, 4′-(bis (cyclopropylmethyl)amino)-3′-(3-p-tolylureido)biphenyl-2-carboxylic acid] | 350 nM |
| CC(C)CN(CC(C)C)c1ccc(-c2ccc(F)cc2C(=O)O)cc1NC(=O)Nc1ccccc1Cl [Example 68, 3′-(3-(2-chlorophenyl)ureido)-4′-(diisobutylamino)-4-fluorobiphenyl-2-carboxylic acid] | 560 nM |
| Cc1ccccc1NC(=O)Nc1cc(-c2cccc(F)c2C(=O)O)ccc1N(CC(C)C)CC(C)C [Example 69, 4′-(diisobutylamino)-3-fluoro-3′-(3-o-tolylureido)biphenyl-2-carboxylic acid] | 890 nM |
| COc1ccc(-c2ccc(N(CC(C)C)CC(C)C)c(NC(=O)Nc3ccc(C)cc3)c2)c(NS(=O)(=O)C(F)(F)F)c1 [Example 71, N-(4′-(diisobutylamino)-4-methoxy-3′-(3-p-tolylureido)biphenyl-2-yl)-1,1,1-trifluoromethane-sulfonamide] | 1740 nM |
| CCN(CCOC)c1ccc(-c2ccccc2C(=O)O)cc1NC(=O)Nc1ccc(C)cc1 [Example 72, 4′-(ethyl(2-methoxyethyl)amino)-3′-(3-p-tolylureido)biphenyl-2-carboxylic acid] | 850 nM |
| CCN(CCOC)c1ccc(-c2ccccc2-c2nnn[nH]2)cc1NC(=O)Nc1ccc(C)cc1 [Example 73, 1-(4-(ethyl(2-methoxyethyl)amino)-2′-(1H-tetrazol-5-yl)biphenyl-3-yl)-3-p-tolylurea] | 150 nM |
| Cc1ccc(NC(=O)Nc2cc(-c3ccccc3NS(C)(=O)=O)ccc2N(CC(C)C)CC(C)C)cc1 [Example 74, N-(4′-(diisobutylamino)-3′-(3-p-tolylureido)biphenyl-2-yl) methanesulfonamide] | 5770 nM |
| CCN(c1ccc(-c2ccc(OC)c(C(=O)O)c2)cc1NC(=O)Nc1ccc(C)cc1)C1CCCC1 [Example 77, 4′-(cyclopentyl(ethyl)amino)-4-methoxy-3′-(3-p-tolylureido) biphenyl-3-carboxylic acid] | 3260 nM |
| COc1ccc(-c2ccc(N(C)C3CCCCCC3)c(NC(=O)Nc3ccc(C)cc3)c2)cc1C(=O)O [Example 78, 4′-(cycloheptyl(methyl)amino)-4-methoxy-3′-(3-p-tolylureido)biphenyl-3-carboxylic acid] | 1920 nM |
| Cc1ccc(NC(=O)Nc2cc(-c3ccc(F)cc3NS(=O)(=O)C(F)(F)F)ccc2N(CC(C)C)CC(C)C)cc1 [Example 81, N-(4′-(diisobutylamino)-4-fluoro-3′-(3-p-tolylureido)biphenyl-2-yl)-1,1,1-trifluoromethane-sulfonamide] | 270 nM |

Molecules with a lower IC50, results first:

| IC50 | Structure (SMILES) |
| --- | --- |
| 120 nM | Cc1ccc(NC(=O)Nc2cc(-c3ccccc3-c3nnn[nH]3)ccc2N(CCC(F)(F)F)CC2CC2)cc1 [Example 63, 1-(4-((cyclopropylmethyl) (3,3,3-trifluoropropyl)amino)-2′-(1H-tetrazol-5-yl)biphenyl-3-yl)-3-p-tolylurea] |
| 110 nM | Cc1ccc(NC(=O)Nc2cc(-c3ccc(F)cc3C(=O)O)ccc2N(CC(C)C)CC(C)C)cc1 [Example 70, 4′-(diisobutylamino)-4-fluoro-3′-(3-p-tolylureido)biphenyl-2-carboxylic acid] |
| 30 nM | Cc1ccc(NC(=O)Nc2cc(-c3ccccc3-c3nnn[nH]3)ccc2N(CC2CC2)CC2CC2)cc1 [Example 66, 1-(4-(bis(cyclopropyl-methyl)amino)-2′-(1H-tetrazol-5-yl)biphenyl-3-yl)-3-p-tolylurea] |
| 20 nM | CCN(c1ccc(-c2ccccc2C(=O)O)cc1NC(=O)Nc1ccc(C)cc1)C1CCCC1 [Example 76, 4′-(cyclopentyl(ethyl)amino)-3′-(3-p-tolylureido)biphenyl-2-carboxylic acid] |
| 10 nM | Cc1ccc(NC(=O)Nc2cc(-c3cscc3C(=O)O)ccc2N(CC(C)C)CC(C)C)cc1 [Example 35, 4-(4-(Diisobutylamino)-3-(3-p-tolylureido)phenyl)thiophene-3-carboxylic acid] |
| 8.75 nM | Cc1ccc(NC(=O)Nc2cc(-c3ccccc3C(=O)O)ccc2N(C)C2CCCCCC2)cc1 [Example 80, 4′-(cycloheptyl(methyl)amino)-3′-(3-p-tolylureido)biphenyl-2-carboxylic acid] |
| 5.9 nM | [2H]C([2H])(C(C)C)N(c1ccc(-c2sccc2C(=O)O)cc1NC(=O)Nc1ccccc1F)C1CCCCC1 [Example 36, 2-(4-(Cyclohexyl(1,1-dideutero-2-methylpropyl)amino)-3-(3-(2-fluorophenyl)ureido)phenyl)thiophene-3-carboxylic acid] |
| 5.19 nM | [2H]C([2H])(C(C)C)N(c1ccc(-c2ccccc2C(=O)O)cc1NC(=O)Nc1ccc(C)cc1)C1CCCCC1 [Example 30, 4′-(Cyclohexyl(1,1-dideutero-2-methylpropyl)amino)-3′-(3-p-tolylureido)biphenyl-2-carboxylic acid] |
| 5.18 nM | [2H]C([2H])(C(C)C)N(c1ccc(-c2cc(F)ccc2C(=O)O)cc1NC(=O)Nc1ccc(C)cc1)C1CCCCC1 [Example 31, 4′-(Cyclohexyl(1,1-dideutero-2-methylpropyl)amino)-5-fluoro-3′-(3-p-tolylureido)biphenyl-2-carboxylic acid] |
| 4.99 nM | [2H]C([2H])(C(C)C)N(c1ccc(-c2ccccc2C(=O)O)cc1NC(=O)Nc1ccccc1F)C1CCCCC1 [Example 33, 4′-(Cyclohexyl(1,1-dideutero-2-methylpropyl)amino)-3′-(3-(2-fluorophenyl)ureido)biphenyl-2-carboxylic acid] |
| 4.01 nM | [2H]C([2H])(C(C)C)N(c1ccc(-c2cc(F)ccc2C(=O)O)cc1NC(=O)Nc1ccccc1F)C1CCCCC1 [Example 34, 4′-(Cyclohexyl(1,1-dideutero-2-methylpropyl)amino)-5-fluoro-3′-(3-(2-fluorophenyl)ureido)biphenyl-2-carboxylic acid] |
| 3.24 nM | CCN(c1ccc(-c2ccccc2-c2nnn[nH]2)cc1NC(=O)Nc1ccc(C)cc1)C1CCCC1 [Example 75, 1-(4-(cyclopentyl(ethyl)amino)-2′-(1H-tetrazol-5-yl)biphenyl-3-yl)-3-p-tolylurea] |
| 2.54 nM | [2H]C([2H])(C(C)C)N(c1ccc(-c2ccccc2-c2nnn[nH]2)cc1NC(=O)Nc1ccccc1F)C1CCCCC1 [Example 32, 1-(4-(Cyclohexyl(1,1-dideutero-2-methylpropyl)amino)-2′-(1H-tetrazol-5-yl)biphenyl-3-yl)-3-(2-fluorophenyl)urea] |
| 1.81 nM | Cc1ccc(NC(=O)Nc2cc(-c3ccccc3-c3nnn[nH]3)ccc2N(C)C2CCCCCC2)cc1 [Example 79, 1-(4-(cycloheptyl(methyl)amino)-2′-(1H-tetrazol-5-yl)biphenyl-3-yl)-3-p-tolylurea] |
